# From patent US4447422A, “Penicillins and compositions containing them” (Beecham Group p.1.c., priority 1981, dated 1984)
# Counter-ions that a name gives are not always drawn.
# Key:
# Staph aureus Oxford = test: antibacterial activity (MIC); type: cell-based; conditions: Staphylococcus aureus; Table 2; gram positive organism Staph. aureus Oxford; read-out: MIC
# E coli NCTC 10418 = test: antibacterial activity (MIC); type: cell-based; conditions: Escherichia coli, NCTC10418; Table 2; gram negative organism E. coli NCTC 10418
Structure (SMILES),MIC (Staph aureus Oxford),MIC (E coli NCTC 10418)
"COc1cc(CNc2ncc(C(=O)N[C@@H](C(=O)N[C@@H]3C(=O)N4[C@@H]3SC(C)(C)[C@@H]4C(=O)O)c3ccccc3)c(O)n2)ccc1O [Example 8, 6β-[D-2-(2[4-Hydroxy-3-methoxybenzylamino]-4-hydroxypyrimidine-5-carbonylamino)-2-phenyl] acetamido penicillanic acid, disodium salt]",1.2 mg/L,10 mg/L
"CC1(C)S[C@@H]2[C@H](NC(=O)[C@H](NC(=O)c3cnc(NCc4ccccc4)nc3O)c3ccc(O)cc3)C(=O)N2[C@H]1C(=O)O [Example 4, 6β-[D-2-(2-Benzylamino-4-hydroxypyrimidine-5-carbonylamino)-2-(4-hydroxyphenyl)] acetamido penicillanic acid disodium salt]",1.25 mg/L,5 mg/L
"CC1(C)S[C@@H]2[C@H](NC(=O)[C@H](NC(=O)c3cnc(NCCCc4ccccc4)nc3O)c3ccccc3)C(=O)N2[C@H]1C(=O)O [Example 3, 6β-[D-2-(2-(3-phenylpropyl-1-amino)-4-hydroxypyrimidine-5-carbonylamino)-2-phenyl] acetamido penicillanic acid]",1.2 mg/L,5 mg/L
"CCCCNc1ncc(C(=O)N[C@@H](C(=O)N[C@@H]2C(=O)N3[C@@H]2SC(C)(C)[C@@H]3C(=O)O)c2ccc(O)cc2)c(O)n1 [Example 17, 6β-[D-2-(2-n-Butylamino-4-hydroxypyrimidine-5-carbonylamino)-2-(4-hydroxyphenyl)] acetamido penicillanic acid, disodium salt]",2.5 mg/L,5 mg/L
"CCCCCNc1ncc(C(=O)N[C@@H](C(=O)N[C@@H]2C(=O)N3[C@@H]2SC(C)(C)[C@@H]3C(=O)O)c2ccccc2)c(O)n1 [Example 18, 6β-[D-2-(2-n-Pentylamino-4-hydroxypyrimidine-5-carbonylamino)-2-phenyl] acetamido penicillanic acid, disodium salt]",1.25 mg/L,1.25 mg/L
"CCSCCNc1ncc(C(=O)N[C@@H](C(=O)N[C@@H]2C(=O)N3[C@@H]2SC(C)(C)[C@@H]3C(=O)O)c2ccc(O)cc2)c(O)n1 [Example 14, 6β-[D-2-(2-[2-(ethylthio)ethyl-1-amino]-4-hydroxypyrimidine-5-carbonylamino)-2-(4-hydroxyphenyl)]acetamidopenicillanic acid, disodium salt]",1.2 mg/L,2.5 mg/L
"CCCCCCCCNc1ncc(C(=O)N[C@@H](C(=O)N[C@@H]2C(=O)N3[C@@H]2SC(C)(C)[C@@H]3C(=O)O)c2ccccc2)c(O)n1 [Example 20, 6β-[D-2-(2-n-Octylamino-4-hydroxypyrimidine-5-carbonylamino)-2-phenyl] acetamido penicillanic acid, disodium salt]",2.5 mg/L,10 mg/L
"CC1(C)S[C@@H]2[C@H](NC(=O)[C@H](NC(=O)c3cnc(NCCc4ccccc4)nc3O)c3ccc(O)cc3)C(=O)N2[C@H]1C(=O)O [Example 5, 6β-[D-2-(2-(2-phenylethyl-1-amino)-4-hydroxypyrimidine-5-carbonylamino)-2-(4-hydroxyphenyl)] acetamido penicillanic acid]",1.2 mg/L,5 mg/L
"COCCCNc1ncc(C(=O)N[C@@H](C(=O)N[C@@H]2C(=O)N3[C@@H]2SC(C)(C)[C@@H]3C(=O)O)c2ccccc2)c(O)n1 [Example 12, 6β-[D-2-(2-[3-methoxypropyl-1-amino]-4-hydroxypyrimidine-5-carbonylamino)-2-phenyl] acetamido penicillanic acid, disodium salt]",1.2 mg/L,5 mg/L
"CCCCCCNc1ncc(C(=O)N[C@@H](C(=O)N[C@@H]2C(=O)N3[C@@H]2SC(C)(C)[C@@H]3C(=O)O)c2ccccc2)c(O)n1 [Example 19, 6β-[D-2-(2-n-hexylamino-4-hydroxypyrimidine-5-carbonylamino)-2-phenyl] acetamido penicillanic acid, disodium salt]",0.5 mg/L,1.2 mg/L
"CC(C)COC(=O)Nc1ncc(C(=O)N[C@@H](C(=O)N[C@@H]2C(=O)N3[C@@H]2SC(C)(C)[C@@H]3C(=O)O)c2ccccc2)c(O)n1 [Example 24, 6β-D-2-(2-Isobutyloxycarbonylamino-4-hydroxypyrimidine-5-carbonylamino)-2-phenyl]acetamido penicillanic acid, disodium salt]",0.5 mg/L,5 mg/L
"CC1(C)S[C@@H]2[C@H](NC(=O)[C@H](NC(=O)c3cnc(NC(=O)c4ccccc4)nc3O)c3ccccc3)C(=O)N2[C@H]1C(=O)O [Example 23, 6β-[D-2-(2-benzoylamino-4-hydroxypyrimidine-5-carbonylamino)-2-phenyl] acetamido penicillanic acid, disodium salt]",0.5 mg/L,5 mg/L
"CC1(C)S[C@@H]2[C@H](NC(=O)[C@H](NC(=O)c3cnc(NCc4ccco4)nc3O)c3ccccc3)C(=O)N2[C@H]1C(=O)O [Example 10, 6β-[D-2-(2-Furfurylamino-4-hydroxypyrimidine-5-carbonylamino)-2-phenyl] acetamido penicillanic acid, disodium salt]",1.2 mg/L,5 mg/L
"CC1(C)S[C@@H]2[C@H](NC(=O)[C@H](NC(=O)c3cnc(NCc4ccc(S(N)(=O)=O)cc4)nc3O)c3ccccc3)C(=O)N2[C@H]1C(=O)O [Example 7, 6β-[D-2-(2-[4-sulphonamidobenzylamino]-4-hydroxypyrimidine-5-carbonylamino)-2-phenyl]acetamido penicillanic acid, disodium salt]",2.5 mg/L,10 mg/L
"CNc1ncc(C(=O)N[C@@H](C(=O)N[C@@H]2C(=O)N3[C@@H]2SC(C)(C)[C@@H]3C(=O)O)c2ccccc2)c(O)n1 [Example 11, 6β-D-2-(2-Methylamino-4-hydroxypyrimidine-5-carbonylamino)-2-phenyl] acetamido penicillanic acid, disodium salt]",2.5 mg/L,25 mg/L

# More lines, in order of falling MIC (Staph aureus Oxford), values ahead:
MIC (Staph aureus Oxford),MIC (E coli NCTC 10418),Structure (SMILES)
0.5 mg/L,5 mg/L,"CCCC(=O)Nc1ncc(C(=O)N[C@@H](C(=O)N[C@@H]2C(=O)N3[C@@H]2SC(C)(C)[C@@H]3C(=O)O)c2ccccc2)c(O)n1 [Example 22, 6β-[D-2-(2-n-butyrylamino-4-hydroxypyrimidine-5-carbonylamino)-2-phenyl] acetamido penicillanic acid, disodium salt]"
0.5 mg/L,2.5 mg/L,"CCCNc1ncc(C(=O)N[C@@H](C(=O)N[C@@H]2C(=O)N3[C@@H]2SC(C)(C)[C@@H]3C(=O)O)c2ccccc2)c(O)n1 [Example 15, 6β-[D-2-(2-n-propylamino-4-hydroxypyrimidine-5-carbonylamino)-2-phenyl] acetamido penicillanic acid, disodium salt]"
0.5 mg/L,5 mg/L,"COCCNc1ncc(C(=O)N[C@@H](C(=O)N[C@@H]2C(=O)N3[C@@H]2SC(C)(C)[C@@H]3C(=O)O)c2ccccc2)c(O)n1 [Example 13, 6β-[D-2-(2-Methoxyethyl-1-amino]-4-hydroxypyrimidine-5-carbonylamino)-2-phenyl] acetamido penicillanic acid, disodium salt]"
0.25 mg/L,5 mg/L,"COc1ccc(CNc2ncc(C(=O)N[C@@H](C(=O)N[C@@H]3C(=O)N4[C@@H]3SC(C)(C)[C@@H]4C(=O)O)c3ccccc3)c(O)n2)cc1 [Example 9, 6β-[D-2-(2-[4-Methoxybenzylamino]-4-hydroxypyrimidine-5-carbonylamino)-2-phenyl] acetamido penicillanic acid, disodium salt]"
0.2 mg/L,5 mg/L,"CC1(C)S[C@@H]2[C@H](NC(=O)[C@H](NC(=O)c3cnc(NCc4ccc(Cl)cc4)nc3O)c3ccccc3)C(=O)N2[C@H]1C(=O)O [Example 6, 6β-D-[2-(2-[4Chlorobenzylamino]-4-hydroxypyrimidine-5-carbonylamino)-2-phenyl] acetamido penicillanic acid]"
0.2 mg/L,5 mg/L,"C=CCNc1ncc(C(=O)N[C@@H](C(=O)N[C@@H]2C(=O)N3[C@@H]2SC(C)(C)[C@@H]3C(=O)O)c2ccccc2)c(O)n1 [Example 21, 6β-[D-2-(2-Allylamino-4-hydroxypyrimidine-5-carbonylamino)2-phenyl] acetamido penicillanic acid, disodium salt]"
0.2 mg/L,2.5 mg/L,"CC1(C)S[C@@H]2[C@H](NC(=O)[C@H](NC(=O)c3cnc(NC(=O)OCc4ccccc4)nc3O)c3ccccc3)C(=O)N2[C@H]1C(=O)O [Example 25, 6β-D-2-(2-benzyloxycarbonylamino-4-hydroxypyrimidine-5-carbonylamino-2-phenyl] acetamido penicillanic acid, disodium salt]"
